Values after ≈ are worked out from the molar mass of the structure shown. “Also recorded” adds a separate entry of the source.
Legend:
Mycobacterium ranae = assay: MIC by serial two-fold agar dilution, M. ranae; format: cell-based; conditions: Mycobacterium; Table 8; No. 1001 medium; read-out: MIC
Experimental: (§1) The minimum inhibitory concentrations (MIC) of Bu-2659A, B, C, D and E were determined for a variety of gram-positive and gram-negative bacteria by the serial two-fold agar dilution method using the Steer's multi-inoculating apparatus. The inoculum was standardized as a 10^4 dilution of an overnight culture of the test organisms in Heart Infusion Broth (Difco). […] Reference antibiotics utilized in these tests included commercially available neomycin as well as its components, neomycins B and C [as used herein, the term "neomycin" means the commercial product containing neomycins B and C at an approximate ratio of 7:3], paromomycin [the commercial product containing >90% of paromomycin I and <10% of paromomycin II] and ribostamycin.

[1] = system: Streptococcus pyogenes A20201; assay: Experimental systemic infection in mice, S. pyogenes A20201; format: in vivo; conditions: Streptococcus pyogenes, A20201, 96 h, im, single treatment, 4 days, read-out: PD50
Experimental: (§2) The in vivo activity of Bu-2659A was assessed by experimental systemic infection in mice. The pathogenic bacteria used in the in vivo tests were E. coli Juhl, K. pneumoniae D-11, P. mirabilis A9906, S. aureus Smith and S. pyogenes A20201. Mice were challenged intraperitoneally with approximately 100×LD50 dose of the pathogens in a 5% suspension of hog gastric mucin (American Laboratories, Omaha, Neb.). A single intramuscular treatment with the antibiotic was given immediately after the bacterial challenge. […] Neomycin was comparatively tested as a reference compound. […] In terms of PD50 value Bu-2659A was about one-half as active as neomycin against infections with S. aureus and S. pyogenes.

[2] = system: Neisseria and Haemophilus species; assay: Antibacterial activity (MIC), overall, Neisseria and Haemophilus, Table 8; format: cell-based; conditions: compared with neomycin
Experimental: as §1

Escherichia coli NIHJ = assay: MIC by serial two-fold agar dilution, E. coli NIHJ; format: cell-based; conditions: Escherichia coli; Table 7; Mueller-Hinton agar; read-out: MIC
Procedure, shortened: (§3)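 Inocula, 10^4-diluted overnight broth cultures, are applied via Steer's multi-inoculating device to agar containing serially halved compound concentrations.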

Proteus mirabilis A9906 [3] = assay: Experimental systemic infection in mice, P. mirabilis A9906; format: in vivo; conditions: Proteus mirabilis, A9906, 96 h, im, single treatment, 4 days, read-out: PD50
Experimental: as §2

Escherichia coli A20732 = assay: MIC, aminoglycoside-resistant E. coli A20732; format: cell-based; conditions: Escherichia coli, A20732; Table 9; inactivating enzyme ANT(2"); Mueller-Hinton agar; read-out: MIC
Experimental: as §1

[4] = system: E. coli Juhl, K. pneumoniae D-11, P. mirabilis A9906, S. aureus Smith and S. pyogenes A20201; assay: Experimental systemic infection in mice, overall; format: in vivo
Experimental: as §2

[5] = system: Neisseria meningitidis A21496; assay: MIC by serial two-fold agar dilution, N. meningitidis A21496; format: cell-based; conditions: Neisseria meningitidis, A21496; Table 8; GC medium; read-out: MIC
Experimental: as §1

Escherichia coli A20107 = assay: MIC, aminoglycoside-resistant E. coli A20107; format: cell-based; conditions: Escherichia coli, A20107; Table 9; inactivating enzyme APH(3')-II; Mueller-Hinton agar; read-out: MIC
Experimental: as §1

[6] = system: species of Streptococcus and Mycobacterium; assay: Antibacterial activity (MIC), overall, Streptococcus and Mycobacterium, Table 8; format: cell-based
Experimental: as §1

[7] = system: gram-positive and gram-negative bacteria; assay: In vitro antibacterial spectra (MIC), overall comparison, Table 7; format: cell-based; conditions: Table 7 organisms
Experimental: as §1

[8] = system: Staphylococcus aureus A20239; assay: MIC, aminoglycoside-resistant S. aureus A20239; format: cell-based; conditions: Staphylococcus aureus, A20239; Table 9; inactivating enzyme APH(3')-I,II; Mueller-Hinton agar; read-out: MIC
Experimental: as §1

[9] = system: Pseudomonas aeruginosa D15; assay: MIC by serial two-fold agar dilution, P. aeruginosa D15; format: cell-based; conditions: Pseudomonas aeruginosa, D15; Table 7; Mueller-Hinton agar; read-out: MIC
Procedure, shortened: as §3

Proteus mirabilis A9906 [10] = assay: MIC by serial two-fold agar dilution, P. mirabilis A9906; format: cell-based; conditions: Proteus mirabilis, A9906; Table 7; Mueller-Hinton agar; read-out: MIC
Procedure, shortened: as §3

[11] = system: Escherichia coli JR66/W677; assay: MIC, aminoglycoside-resistant E. coli JR66/W677; format: cell-based; conditions: Escherichia coli, JR66/W677
Experimental: as §1

[12] = system: Bacillus subtilis PCI 219; assay: MIC by serial two-fold agar dilution, B. subtilis PCI 219; format: cell-based; conditions: Bacillus subtilis, PCI219; Table 7; Mueller-Hinton agar; read-out: MIC
Procedure, shortened: as §3

[13] = system: Streptococcus pneumoniae Type I; assay: MIC by serial two-fold agar dilution, S. pneumoniae Type I; format: cell-based; conditions: Streptococcus pneumoniae; Table 8; GC medium; read-out: MIC
Experimental: as §1

[14] = system: Escherichia coli JR35/C600; assay: MIC, aminoglycoside-resistant E. coli JR35/C600; format: cell-based; conditions: Escherichia coli, JR35/C600
Experimental: as §1

[15] = system: Escherichia coli NR79/W677; assay: MIC, aminoglycoside-resistant E. coli NR79/W677; format: cell-based; conditions: Escherichia coli, NR79/W677
Experimental: as §1

[16] = system: Klebsiella pneumoniae D11; assay: MIC by serial two-fold agar dilution, K. pneumoniae D11; format: cell-based; conditions: Klebsiella pneumoniae, D11; Table 7; Mueller-Hinton agar; read-out: MIC
Procedure, shortened: as §3

[17] = system: Pseudomonas aeruginosa A20896; assay: MIC, aminoglycoside-resistant P. aeruginosa A20896; format: cell-based; conditions: Pseudomonas aeruginosa, A20896; Table 9; inactivating enzyme AAC(3)-II; Mueller-Hinton agar; read-out: MIC
Experimental: as §1

Mycobacterium phlei = assay: MIC by serial two-fold agar dilution, M. phlei; format: cell-based; conditions: Mycolicibacterium phlei; Table 8; No. 1001 medium; read-out: MIC
Experimental: as §1

[18] = system: Pseudomonas aeruginosa A9930; assay: MIC by serial two-fold agar dilution, P. aeruginosa A9930; format: cell-based; conditions: Pseudomonas aeruginosa, A9930; Table 7; Mueller-Hinton agar; read-out: MIC
Procedure, shortened: as §3

Escherichia coli Juhl = assay: MIC by serial two-fold agar dilution, E. coli Juhl; format: cell-based; conditions: Escherichia coli; Table 7; Mueller-Hinton agar; read-out: MIC
Procedure, shortened: as §3

Escherichia coli JR88 = assay: MIC, aminoglycoside-resistant E. coli JR88; format: cell-based; conditions: Escherichia coli, JR88
Procedure, shortened: as §3

Proteus rettgeri A15167 = assay: MIC by serial two-fold agar dilution, P. rettgeri A15167; format: cell-based; conditions: Providencia rettgeri, A15167; Table 7; Mueller-Hinton agar; read-out: MIC
Procedure, shortened: as §3

[19] = system: Staphylococcus aureus Smith; assay: MIC by serial two-fold agar dilution, S. aureus Smith; format: cell-based; conditions: Staphylococcus aureus; Table 7; Mueller-Hinton agar; read-out: MIC
Procedure, shortened: as §3

[20] = system: Staphylococcus aureus 209P; assay: MIC by serial two-fold agar dilution, S. aureus 209P; format: cell-based; conditions: Staphylococcus aureus, 209P; Table 7; Mueller-Hinton agar; read-out: MIC
Procedure, shortened: as §3

[21] = system: Serratia marcescens A20019; assay: MIC by serial two-fold agar dilution, S. marcescens A20019; format: cell-based; conditions: Serratia marcescens, A20019; Table 7; Mueller-Hinton agar; read-out: MIC
Procedure, shortened: as §3

NC[C@@H]1O[C@H](O[C@H]2[C@@H](O)[C@H](O[C@@H]3[C@@H](O)[C@H](O)C[C@H](N)[C@H]3O[C@H]3O[C@H](CN)[C@@H](O)[C@H](O)[C@H]3N)O[C@@H]2CO)[C@H](N)[C@@H](O)[C@@H]1O [Bu-2659A, 1-deamino-1-hydroxyneomycin B]
MIC (Mycobacterium ranae): 0.4 µg/mL (≈ 0.65 µM) | ED50 [1]: 50 mg/kg | activity against Neisseria and Haemophilus, in words [2]: more active than neomycin | MIC (Escherichia coli NIHJ): 1.6 µg/mL (≈ 2.6 µM) | ED50 (Proteus mirabilis A9906 [3]): 2.5 mg/kg | MIC (Escherichia coli A20732): 0.8 µg/mL (≈ 1.3 µM) | protection in mice, in words ([4]; five experimental infections): excellent protection | in vivo activity relative to neomycin, in terms of PD50 ([4]; infections with S. aureus and S. pyogenes): about one-half | in vivo activity compared with neomycin, in words ([4]; infections with three gram-negative bacteria): comparable to that of neomycin | MIC [5]: 50 µg/mL (≈ 81.2 µM) | MIC (Escherichia coli A20107): 25 µg/mL (≈ 40.6 µM) | activity against Streptococcus and Mycobacterium, in words [6]: equivalent activity | in vitro antibacterial activity, in words [7]: highest activity among the five Bu-2659 components; also recorded: comparable to that of neomycin; also recorded: substantially the same level of antibacterial activity as neomycin B | MIC [8]: 12.5 µg/mL (≈ 20.3 µM) | MIC [9]: 3.1 µg/mL (≈ 5.04 µM) | MIC (Proteus mirabilis A9906 [10]): 0.8 µg/mL (≈ 1.3 µM) | MIC [11]: > 100 µg/mL | MIC [12]: 0.1 µg/mL (≈ 0.162 µM) | MIC [13]: 25 µg/mL (≈ 40.6 µM) | MIC [14]: 25 µg/mL (≈ 40.6 µM) | MIC [15]: 50 µg/mL (≈ 81.2 µM) | MIC [16]: 0.2 µg/mL (≈ 0.325 µM) | MIC [17]: > 100 µg/mL | MIC (Mycobacterium phlei): 0.1 µg/mL (≈ 0.162 µM) | MIC [18]: 1.6 µg/mL (≈ 2.6 µM) | MIC (Escherichia coli Juhl): 3.1 µg/mL (≈ 5.04 µM) | MIC (Escherichia coli JR88): 1.6 µg/mL (≈ 2.6 µM) | MIC (Proteus rettgeri A15167): 0.8 µg/mL (≈ 1.3 µM) | MIC [19]: 1.6 µg/mL (≈ 2.6 µM) | MIC [20]: 0.8 µg/mL (≈ 1.3 µM) | MIC [21]: 3.1 µg/mL (≈ 5.04 µM)
